According to patent publication US9840510B1, “Pyrazolo[1,5-a]pyrimidinyl carboxamide compounds and their use in the treatment of medical disorders” (Lysosomal Therapeutics Inc., priority 2016, dated 2017):
Values after ≈ are worked out from the molar mass of the structure shown.

Assay: Compound solubility in water
Assay type: physicochemical

| SMILES | solubility |
| --- | --- |
| Cc1cc(N2CCCN(C(C)C)C2=O)nc2c(C(=O)NC(C)C(F)(F)F)cnn12 (stereo not drawn) [III-259] | 25.8 µg/mL (≈ 62.6 µM) |
| Cc1cc(N2CCCN(CC(F)(F)F)C2=O)nc2c(C(=O)NC(C3CC3)C(F)(F)F)cnn12 (stereo not drawn) [III-260] | 21 µg/mL (≈ 43.9 µM) |
| Cc1cc(N2CCCN(C(C)C)C2=O)nc2c(C(=O)NC(C)(C)C3CC3)cnn12 [III-261] | 23 µg/mL (≈ 57.7 µM) |
| Cc1cc(N2CCCN(C(C)C)C2=O)nc2c(C(=O)NC(C)(C)C(F)(F)F)cnn12 [III-262] | 19 µg/mL (≈ 44.6 µM) |
| COc1ccncc1-c1cc(C)n2ncc(C(=O)NC(C3CC3)C(F)(F)F)c2n1 (stereo not drawn) [III-263] | 8.9 µg/mL (≈ 22 µM) |
| Cc1cc(-c2ccc(F)o2)nc2c(C(=O)NC(C3CC3)C(F)(F)F)cnn12 (stereo not drawn) [III-264] | 0.4 µg/mL (≈ 1.05 µM) |
| COc1cncc(-c2cc(C)n3ncc(C(=O)NC(C4CC4)C(F)(F)F)c3n2)c1 (stereo not drawn) [III-265] | 1.3 µg/mL (≈ 3.21 µM) |
| COc1ccc(-c2cc(C)n3ncc(C(=O)NC(C4CC4)C(F)(F)F)c3n2)cn1 (stereo not drawn) [III-268] | 1.2 µg/mL (≈ 2.96 µM) |
| COc1ccncc1-c1cc(C)n2ncc(C(=O)NC(C)C(F)(F)F)c2n1 (stereo not drawn) [III-269] | 12.7 µg/mL (≈ 33.5 µM) |
| COc1cncc(-c2cc(C)n3ncc(C(=O)NC(C)C(F)(F)F)c3n2)c1 (stereo not drawn) [III-270] | 4.9 µg/mL (≈ 12.9 µM) |
| COc1ccc(-c2cc(C)n3ncc(C(=O)NC(C)C(F)(F)F)c3n2)cn1 (stereo not drawn) [III-271] | 2.3 µg/mL (≈ 6.06 µM) |
| COc1ccc(-c2cc(C)n3ncc(C(=O)N[C@H](C)C(F)(F)F)c3n2)cn1 [III-272] | 3.1 µg/mL (≈ 8.17 µM) |
| COc1ccc(-c2cc(C)n3ncc(C(=O)N[C@@H](C)C(F)(F)F)c3n2)cn1 [III-273] | 3.4 µg/mL (≈ 8.96 µM) |
| Cc1ccncc1-c1cc(C)n2ncc(C(=O)NC(C3CC3)C(F)(F)F)c2n1 (stereo not drawn) [III-274] | 2.3 µg/mL (≈ 5.91 µM) |
| Cc1cncc(-c2cc(C)n3ncc(C(=O)NC(C4CC4)C(F)(F)F)c3n2)c1 (stereo not drawn) [III-275] | 2.6 µg/mL (≈ 6.68 µM) |
| Cc1cncc(-c2cc(C)n3ncc(C(=O)N[C@H](C4CC4)C(F)(F)F)c3n2)c1 [III-276] | 1.8 µg/mL (≈ 4.62 µM) |
| Cc1cncc(-c2cc(C)n3ncc(C(=O)N[C@@H](C4CC4)C(F)(F)F)c3n2)c1 [III-277] | 5.3 µg/mL (≈ 13.6 µM) |
| Cc1ccc(-c2cc(C)n3ncc(C(=O)NC(C4CC4)C(F)(F)F)c3n2)cn1 (stereo not drawn) [III-278] | 0.5 µg/mL (≈ 1.28 µM) |
| Cc1ccc(-c2cc(C)n3ncc(C(=O)N[C@H](C4CC4)C(F)(F)F)c3n2)cn1 [III-279] | 1.5 µg/mL (≈ 3.85 µM) |
| Cc1ccc(-c2cc(C)n3ncc(C(=O)N[C@@H](C4CC4)C(F)(F)F)c3n2)cn1 [III-280] | 1.3 µg/mL (≈ 3.34 µM) |
| Cc1ccncc1-c1cc(C)n2ncc(C(=O)NC(C)C(F)(F)F)c2n1 (stereo not drawn) [III-281] | 12.5 µg/mL (≈ 34.4 µM) |
| Cc1cncc(-c2cc(C)n3ncc(C(=O)NC(C)C(F)(F)F)c3n2)c1 (stereo not drawn) [III-282] | 6.2 µg/mL (≈ 17.1 µM) |
| Cc1ccc(-c2cc(C)n3ncc(C(=O)NC(C)C(F)(F)F)c3n2)cn1 (stereo not drawn) [III-283] | 12.7 µg/mL (≈ 35 µM) |
| Cc1cc(-c2cnccc2C(F)(F)F)nc2c(C(=O)NC(C)C(F)(F)F)cnn12 (stereo not drawn) [III-284] | 13.2 µg/mL (≈ 31.6 µM) |
| Cc1cc(-c2cncc(C(F)(F)F)c2)nc2c(C(=O)NC(C)C(F)(F)F)cnn12 (stereo not drawn) [III-285] | 1.2 µg/mL (≈ 2.88 µM) |

| SMILES | solubility |
| --- | --- |
| Cc1cc(-c2cncc(C(F)(F)F)c2)nc2c(C(=O)N[C@H](C)C(F)(F)F)cnn12 [III-286] | 2.1 µg/mL (≈ 5.03 µM) |
| Cc1cc(-c2cncc(C(F)(F)F)c2)nc2c(C(=O)N[C@@H](C)C(F)(F)F)cnn12 [III-287] | 2.4 µg/mL (≈ 5.75 µM) |
| Cc1cc(-c2ccc(C(F)(F)F)nc2)nc2c(C(=O)NC(C)C(F)(F)F)cnn12 (stereo not drawn) [III-288] | 1.4 µg/mL (≈ 3.35 µM) |
| Cc1cc(-c2ccc3c(c2)OCO3)nc2c(C(=O)NC(C)C(F)(F)F)cnn12 (stereo not drawn) [III-289] | 0.8 µg/mL (≈ 2.04 µM) |
| Cc1cc(-c2cncc(Cl)c2)nc2c(C(=O)N[C@@H](C)C3CC3)cnn12 [III-290] | 2.1 µg/mL (≈ 5.9 µM) |
| Cc1cc(-c2cncc(Cl)c2)nc2c(C(=O)NC(C)(C)C3CC3)cnn12 [III-292] | 0.3 µg/mL (≈ 0.811 µM) |
| CCCCO[C@H]1CC[C@H](NC(=O)c2cnn3c(C)cc(-c4cncc(Cl)c4)nc23)CC1 [III-293] | 0.3 µg/mL (≈ 0.679 µM) |
| Cc1cc(-c2cc(F)c3c(c2)OCO3)nc2c(C(=O)NC(C)C(F)(F)F)cnn12 (stereo not drawn) [III-294] | 0.6 µg/mL (≈ 1.46 µM) |
| Cc1cc(-c2cc(F)c3ocnc3c2)nc2c(C(=O)NC(C)C(F)(F)F)cnn12 (stereo not drawn) [III-295] | 3.4 µg/mL (≈ 8.35 µM) |
| COCCOc1ccc(-c2cc(C)n3ncc(C(=O)NC(C)C(F)(F)F)c3n2)cc1F (stereo not drawn) [III-298] | 1.5 µg/mL (≈ 3.41 µM) |
| Cc1cc(-c2ccc(N3CCOCC3)c(F)c2)nc2c(C(=O)NC(C)C(F)(F)F)cnn12 (stereo not drawn) [III-299] | 0.5 µg/mL (≈ 1.11 µM) |
| Cc1cc(-c2sccc2C#N)nc2c(C(=O)NC(C)C(F)(F)F)cnn12 (stereo not drawn) [III-300] | 1.4 µg/mL (≈ 3.69 µM) |
| Cc1cc(-c2sccc2C#N)nc2c(C(=O)N[C@@H](C)C3CC3)cnn12 [III-301] | 1.1 µg/mL (≈ 3.13 µM) |
| Cc1cc(-c2sccc2C#N)nc2c(C(=O)N[C@H](C)C3CC3)cnn12 [III-302] | 0.5 µg/mL (≈ 1.42 µM) |
| Cc1cc(-c2ccc3c(c2)ncn3C)nc2c(C(=O)NC(C3CC3)C(F)(F)F)cnn12 (stereo not drawn) [III-303] | 3.2 µg/mL (≈ 7.47 µM) |
| Cc1cc(-c2ccc3ncn(C)c3c2)nc2c(C(=O)NC(C3CC3)C(F)(F)F)cnn12 (stereo not drawn) [III-304] | 0.4 µg/mL (≈ 0.934 µM) |
| Cc1cc(-c2ccc3nc[nH]c3c2)nc2c(C(=O)NC(C3CC3)C(F)(F)F)cnn12 (stereo not drawn) [III-307] | 0.3 µg/mL (≈ 0.724 µM) |
| Cc1cc(-c2cccc3nc[nH]c23)nc2c(C(=O)NC(C3CC3)C(F)(F)F)cnn12 (stereo not drawn) [III-308] | 4.6 µg/mL (≈ 11.1 µM) |
| Cc1cc(-c2cccc3ncn(C)c23)nc2c(C(=O)NC(C3CC3)C(F)(F)F)cnn12 (stereo not drawn) [III-309] | 31.4 µg/mL (≈ 73.3 µM) |
| Cc1cc(-c2cccc3c2ncn3C)nc2c(C(=O)NC(C3CC3)C(F)(F)F)cnn12 (stereo not drawn) [III-310] | 0.3 µg/mL (≈ 0.7 µM) |
| Cc1cc(-c2nc3ccccc3[nH]2)nc2c(C(=O)NC(C3CC3)C(F)(F)F)cnn12 (stereo not drawn) [III-311] | 0.6 µg/mL (≈ 1.45 µM) |
| Cc1cc(-c2nc3ccccc3n2C)nc2c(C(=O)NC(C3CC3)C(F)(F)F)cnn12 (stereo not drawn) [III-312] | 0.3 µg/mL (≈ 0.7 µM) |
| Cc1cc(N2CC(C(C)C)OC2=O)nc2c(C(=O)NC(c3ccccc3)C(F)(F)F)cnn12 (stereo not drawn) [III-313] | 0.1 µg/mL (≈ 0.217 µM) |
| Cc1cc(N2C[C@H](c3ccccc3)OC2=O)nc2c(C(=O)NC(C3CC3)C(F)(F)F)cnn12 (stereo partly drawn) [III-314] | 0.2 µg/mL (≈ 0.435 µM) |
| Cc1cc(N2C[C@@H](c3ccccc3)OC2=O)nc2c(C(=O)NC(C3CC3)C(F)(F)F)cnn12 (stereo partly drawn) [III-315] | 0.1 µg/mL (≈ 0.218 µM) |

| SMILES | solubility |
| --- | --- |
| Cc1cc(N2CC(C(C)C)OC2=O)nc2c(C(=O)NC(C3CC3)C(F)(F)F)cnn12 (stereo not drawn) [III-316] | 1.3 µg/mL (≈ 3.06 µM) |
| Cc1cc(N2CC(C)(C)NC2=O)nc2c(C(=O)NC(C3CC3)C(F)(F)F)cnn12 (stereo not drawn) [III-319] | 1.3 µg/mL (≈ 3.17 µM) |
| Cc1nc2cc(-c3cc(C)n4ncc(C(=O)N[C@@H](C)C5CC5)c4n3)ccc2o1 [III-321] | 1.9 µg/mL (≈ 5.06 µM) |
| Cc1cc(-c2ccnnc2)nc2c(C(=O)NC(C3CC3)C(F)(F)F)cnn12 (stereo not drawn) [III-325] | 14.6 µg/mL (≈ 38.8 µM) |
| Cc1cc(N2CCN(C(C)C)C2=O)nc2c(C(=O)N[C@@H](C3CC3)C(F)(F)F)cnn12 [III-326] | 21 µg/mL (≈ 49.5 µM) |
| Cc1cc(N2CCN(C(C)C)C2=O)nc2c(C(=O)N[C@H](C3CC3)C(F)(F)F)cnn12 [III-327] | 32.8 µg/mL (≈ 77.3 µM) |
| Cc1cc(N2CCC(C)(C)C2=O)nc2c(C(=O)NC(C3CC3)C(F)(F)F)cnn12 (stereo not drawn) [III-328] | 3.3 µg/mL (≈ 8.06 µM) |
| Cc1nc(-c2cc(C)n3ncc(C(=O)N[C@H](C4CC4)C(F)(F)F)c3n2)oc1C [III-331] | 1 µg/mL (≈ 2.54 µM) |
| Cc1cc(-c2ccc(F)o2)nc2c(C(=O)N[C@H](C)C(F)(F)F)cnn12 [III-334] | 2 µg/mL (≈ 5.61 µM) |
| Cc1cc(-c2cc(C)n3ncc(C(=O)N[C@H](C)C(F)(F)F)c3n2)co1 [III-338] | 0.2 µg/mL (≈ 0.568 µM) |
| Cc1cc(-c2cc(C)n3ncc(C(=O)N[C@H](C4CC4)C(F)(F)F)c3n2)on1 [III-343] | 1.5 µg/mL (≈ 3.95 µM) |
| Cc1nc(-c2cc(C)n3ncc(C(=O)N[C@H](C)C(F)(F)F)c3n2)oc1C [III-345] | 1 µg/mL (≈ 2.72 µM) |
| Cc1cc(-c2cc(C)n3ncc(C(=O)N[C@@H](C)C4CC4)c3n2)sn1 [III-346] | 18.8 µg/mL (≈ 55.1 µM) |
| Cc1cc(-c2cc(F)ccc2C#N)nc2c(C(=O)N[C@H](C)C(F)(F)F)cnn12 [III-349] | 0.1 µg/mL (≈ 0.256 µM) |
| Cc1cc(-c2cc(F)ccc2C#N)nc2c(C(=O)N[C@@H](C)C(F)(F)F)cnn12 [III-350] | 0.3 µg/mL (≈ 0.767 µM) |
| Cc1cc(-c2cnccc2C(F)(F)F)nc2c(C(=O)N[C@H](C3CC3)C(F)(F)F)cnn12 [III-353] | 8.3 µg/mL (≈ 18.7 µM) |
| Cc1cc(-c2cnccc2C(F)(F)F)nc2c(C(=O)N[C@@H](C3CC3)C(F)(F)F)cnn12 [III-354] | 13.5 µg/mL (≈ 30.4 µM) |
| Cc1cc(-c2cccnc2C(F)(F)F)nc2c(C(=O)N[C@H](C3CC3)C(F)(F)F)cnn12 [III-355] | 0.1 µg/mL (≈ 0.226 µM) |
| Cc1cc(-c2ccc(F)cc2)nc2c(C(=O)N[C@H](C)C(F)(F)F)cnn12 [III-359] | 0.7 µg/mL (≈ 1.91 µM) |
| Cc1cc(-c2ccc(F)cc2)nc2c(C(=O)N[C@@H](C)C(F)(F)F)cnn12 [III-360] | 0.7 µg/mL (≈ 1.91 µM) |
| Cc1cc(-c2cccc(F)c2)nc2c(C(=O)N[C@H](C)C(F)(F)F)cnn12 [III-361] | 0.7 µg/mL (≈ 1.91 µM) |
| Cc1cc(-c2cccc(F)c2)nc2c(C(=O)N[C@@H](C)C(F)(F)F)cnn12 [III-362] | 0.6 µg/mL (≈ 1.64 µM) |
| Cc1cc(-c2cncc(C#N)c2)nc2c(C(=O)N[C@H](C3CC3)C(F)(F)F)cnn12 [III-363] | 1.7 µg/mL (≈ 4.25 µM) |
| Cc1cc(-c2cccnc2C#N)nc2c(C(=O)N[C@H](C3CC3)C(F)(F)F)cnn12 [III-365] | 1.8 µg/mL (≈ 4.5 µM) |
| Cc1cc(-c2cccnc2C#N)nc2c(C(=O)N[C@@H](C3CC3)C(F)(F)F)cnn12 [III-366] | 1.1 µg/mL (≈ 2.75 µM) |
